Test results published in patent US20030177531A1, “Regulating metabolism by modifying the level of trehalose-6-phosphate by inhibiting endogenous trehalase levels” (Mogen International N.V., priority 1997, published 2003).

How the values were obtained:
trehalase activity = test: Trehalose accumulation in potato microtubers induced on medium with Validamycin A; assay type: cell-based, Solanum tuberosum cv. Kardal; details: for Trehalose (% fresh weight), +Validamycin A: 10^−3M Validamycin A
Protocol: Stem segments of in vitro potato plants harbouring an auxiliary meristem were transferred to micro-tuber inducing medium. Micro-tuber inducing medium contains 1×MS-salts supplemented with R3 vitamins, 0.5 g/l MES (final pH=5.8, adjusted with KOH) and solidified with 8 g/l Daichin agar, 60 g/l sucrose and 2.5 mg/l kinetin. After 3 to 5 weeks of growth in the dark at 24° C., micro-tubers were formed.
Validamycin A was isolated from Solacol, a commercial agricultural formulation (Takeda Chem. Indust., Tokyo) as described by Kendall et al. (1990) Phytochemistry 29, 2525. The procedure involves ion-exchange chromatography (QAE-Sephadex A-25 (Pharmacia), bed vol. 10 ml, equilibration buffer 0.2 mM Na-Pi pH 7) from a 3% agricultural formulation of Solacol. Loading 1 ml of Solacol on the column and eluting with water in 7 fractions, practically all Validamycin was recovered in fraction 4. Based on a 100% recovery, using this procedure, the concentration of Validamycin A was adjusted to 1.10^−3M in MS-medium, for use in trehalose accumulation tests. Alternatively, Validamycin A and B may be purified directly from Streptomyces hygroscopicus var. limoneus, as described by Iwasa et al. (1971) J. Antibiot. 24, 119, the content of which is incorporated herein by reference.
Carbohydrates were determined quantitatively by anion exchange chromatography with pulsed electrochemical detection. Extracts were prepared by extracting homogenized frozen material with 80% EtOH. After extraction for 15 minutes at room temperature, the soluble fraction is evaporated and dissolved in distilled water. Samples (25 μl) were analyzed on a Dionex DX-300 liquid chromatograph equipped with a 4×250 mm Dionex 35391 carbopac PA-1 column and a 4×50 mm Dionex 43096 carbopac PA-1 precolumn. Elution was with 100 mM NaOH at 1 ml/min followed by a NaAc gradient. Sugars were detected with a pulsed electrochemical detector (Dionex, PED). Commercially available carbohydrates (Sigma) were used as a standard.
Transgenic potato plants were generated harbouring the otsA gene driven by the potato tuber-specific patatin promoter (pMOG845). Potato Solanum tuberosum cv. Kardal tuber discs were transformed with Agrobacterium tumefaciens EHA105 harbouring the binary vector pMOG845. […] All plants obtained were phenotypically indistinguishable from wild type plants. […] The presence of small amounts of trehalose in wild-type plants indicates the presence of a functional trehalose biosynthetic pathway.

[1] = tested on: α- or β-glycohydrolase activity; details: except for trehalase; cited from earlier work

With `OCC1=C[C@H](N[C@H]2C[C@H](CO)[C@@H](O[C@@H]3O[C@H](CO)[C@@H](O)[C@H](O)[C@H]3O)[C@H](O)[C@H]2O)[C@H](O)[C@@H](O)[C@@H]1O` [Validamycin A, 1,5,6-trideoxy-3-o-β-D-glucopyranosyl-5-(hydroxymethyl)-1-[[4,5,6-trihydroxy-3-(hydroxymenthyl)-2-cyclohexen-1-yl]amino]-D-chiro-inositol] the “Trehalose level in microtubers versus medium without Validamycin A” value (trehalase activity; microtuber-inducing medium with 10^−3M Validamycin A, transgenic pMOG845 and wild-type plants) was “elevated levels of trehalose”, the “Trehalose (% fresh weight), +Validamycin A” value (“Trehalose (% fresh weight)” below) (trehalase activity; microtubers of transgenic line 845-2 (pat-TPS)) was 0.016 % fresh weight and the “Trehalose (% fresh weight)” value (trehalase activity; microtubers of transgenic line 845-8 (pat-TPS)) was 0.051 % fresh weight. The “Trehalose (% fresh weight)” value (trehalase activity; microtubers of transgenic line 845-11 (pat-TPS)) was 0.015 % fresh weight, the “Trehalose (% fresh weight)” value (trehalase activity; microtubers of transgenic line 845-13 (pat-TPS)) was 0.011 % fresh weight and the “Trehalose (% fresh weight)” value (trehalase activity; microtubers of transgenic line 845-22 (pat-TPS)) was 0.112 % fresh weight. For the same molecule, the “Trehalose (% fresh weight)” value (trehalase activity; microtubers of transgenic line 845-25 (pat-TPS)) was 0.002 % fresh weight, the “Trehalose (% fresh weight)” value (trehalase activity; microtubers of transgenic line 845-28 (pat-TPS)) was 0.109 % fresh weight and the “Trehalose (% fresh weight)” value (trehalase activity; microtubers of wild-type Kardal) was 0.001 % fresh weight. The “Inhibition of α- or β-glycohydrolase activity other than trehalase” value [1] was “does not significantly inhibit”.
